How the values were obtained:
LGC-41 [1] = target: T1, LGC-41 (Caenorhabditis elegans, UniProt Q18518); assay: two-electrode voltage clamp in Xenopus oocytes, agonist dose-response; assay type: cell-based
T1 construct: homomeric channel, cDNA from wild-type N2
T1 sequence (Q18518 26-540): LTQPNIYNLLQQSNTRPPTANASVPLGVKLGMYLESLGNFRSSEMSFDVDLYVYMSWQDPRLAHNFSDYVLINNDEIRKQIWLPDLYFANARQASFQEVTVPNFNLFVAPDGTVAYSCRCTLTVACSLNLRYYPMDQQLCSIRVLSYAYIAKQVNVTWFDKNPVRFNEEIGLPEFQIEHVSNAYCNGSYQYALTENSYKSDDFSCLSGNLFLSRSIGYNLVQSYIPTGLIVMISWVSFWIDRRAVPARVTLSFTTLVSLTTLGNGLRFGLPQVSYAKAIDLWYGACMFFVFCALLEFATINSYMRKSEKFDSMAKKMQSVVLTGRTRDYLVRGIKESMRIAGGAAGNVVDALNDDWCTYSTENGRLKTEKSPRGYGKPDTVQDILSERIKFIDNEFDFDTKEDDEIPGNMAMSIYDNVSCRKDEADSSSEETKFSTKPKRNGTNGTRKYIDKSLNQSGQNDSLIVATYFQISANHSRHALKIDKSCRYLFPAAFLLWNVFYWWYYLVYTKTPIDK

LGC-41 [2] = target: T1, LGC-41; assay: two-electrode voltage clamp in Xenopus oocytes, block of current induced by […] betaine; assay type: cell-based

Structure (SMILES): C[N+](C)(C)CC(=O)O [betaine]
- EC50 (LGC-41 [1]): 211 µM

Structure (SMILES): C=C(C)[C@@H]1[C@H]2OC(=O)[C@@H]1[C@]1(O)C[C@H]3OC34C(=O)O[C@H]2[C@@]41C.CC(C)(O)[C@@H]1[C@H]2OC(=O)[C@@H]1[C@]1(O)C[C@H]3OC34C(=O)O[C@H]2[C@@]41C (stereo partly drawn) [picrotoxin]
- IC50 (LGC-41 [2]): 144 µM

Structure (SMILES): O=C1C[C@@H]2OCC=C3CN4CC[C@]56c7ccccc7N1[C@H]5[C@H]2[C@H]3C[C@H]46 [strychnine]
- IC50 (LGC-41 [2]): 973 µM

Reference: paper PMC9860315, “Neuronally produced betaine acts via a ligand-gated ion channel to control behavioral states” (Proceedings of the National Academy of Sciences of the …, 2022)
